Test results from ChEMBL document CHEMBL4145509, “Unravelling the binding mechanism of benproperine with human serum albumin: A docking, fluorometric, and thermodynamic approach” (Eur J Med Chem, 2018).

Assays:
Albumin [1] = biological target: T1, Albumin (Homo sapiens, UniProt P02768); test: Binding affinity to human serum albumin assessed as Stern-Volmer quenching constant after 1 hr at 25 degC by fluorescence spectroscopic analysis; format: ADME; settings: isolated protein
Albumin [2] = biological target: T1, Albumin; test: Binding affinity to human serum albumin assessed as Stern-Volmer quenching constant after 1 hr at 37 degC by fluorescence spectroscopic analysis; format: ADME; settings: isolated protein
Albumin [3] = biological target: T1, Albumin; test: Binding affinity to human serum albumin assessed as fluorescence lifetime decay 1 at HSA:compound ratio of 1:2 after 1 hr by fluorescence spectroscopic analysis (reference value: 3.917 +/- 0.039 nanoseconds); format: ADME; settings: isolated protein
Albumin [4] = biological target: T1, Albumin; test: Binding affinity to human serum albumin assessed as fluorescence lifetime decay 1 at HSA:compound ratio of 1:10 after 1 hr by fluorescence spectroscopic analysis (reference value: 3.917 +/- 0.039 nanoseconds); format: ADME; settings: isolated protein
Albumin [5] = biological target: T1, Albumin; test: Binding affinity to human serum albumin assessed as fluorescence lifetime decay 2 at HSA:compound ratio of 1:2 after 1 hr by fluorescence spectroscopic analysis (reference value: 0.584 +/- 0.047 nanoseconds); format: ADME; settings: isolated protein
Albumin [6] = biological target: T1, Albumin; test: Binding affinity to human serum albumin assessed as fluorescence lifetime decay 2 at HSA:compound ratio of 1:10 after 1 hr by fluorescence spectroscopic analysis (reference value: 0.584 +/- 0.047 nanoseconds); format: ADME; settings: isolated protein
Albumin [7] = biological target: T1, Albumin; test: Binding affinity to human serum albumin assessed as fluorescence lifetime decay 3 at HSA:compound ratio of 1:2 after 1 hr by fluorescence spectroscopic analysis (reference value: 6.876 +/- 0.177 nanoseconds); format: ADME; settings: isolated protein
Albumin [8] = biological target: T1, Albumin; test: Binding affinity to human serum albumin assessed as fluorescence lifetime decay 3 at HSA:compound ratio of 1:10 after 1 hr by fluorescence spectroscopic analysis (reference value: 6.876 +/- 0.177 nanoseconds); format: ADME; settings: isolated protein
Albumin [9] = biological target: T1, Albumin; test: Binding affinity to human serum albumin assessed as binding constant after 1 hr at 25 degC by fluorescence spectroscopic analysis; format: ADME; settings: isolated protein
Albumin [10] = biological target: T1, Albumin; test: Binding affinity to human serum albumin assessed as binding constant after 1 hr at 37 degC by fluorescence spectroscopic analysis; format: ADME; settings: isolated protein
Albumin [11] = biological target: T1, Albumin; test: Binding affinity to human serum albumin by isothermal titration microcalorimetry; format: ADME; settings: isolated protein
Albumin [12] = biological target: T1, Albumin; test: Induction of conformational changes in human serum albumin assessed as reduction in alpha-helical content at HSA:compound ratio of 1:2 by CD spectral analysis (reference value: 52.6%); set-up: scale not given: the % may be the effect or the level left
Albumin [13] = biological target: T1, Albumin; test: Induction of conformational changes in human serum albumin assessed as reduction in alpha-helical content at HSA:compound ratio of 1:10 by CD spectral analysis (reference value: 52.6%); set-up: scale not given: the % may be the effect or the level left

T1 sequence (P02768 whole entry): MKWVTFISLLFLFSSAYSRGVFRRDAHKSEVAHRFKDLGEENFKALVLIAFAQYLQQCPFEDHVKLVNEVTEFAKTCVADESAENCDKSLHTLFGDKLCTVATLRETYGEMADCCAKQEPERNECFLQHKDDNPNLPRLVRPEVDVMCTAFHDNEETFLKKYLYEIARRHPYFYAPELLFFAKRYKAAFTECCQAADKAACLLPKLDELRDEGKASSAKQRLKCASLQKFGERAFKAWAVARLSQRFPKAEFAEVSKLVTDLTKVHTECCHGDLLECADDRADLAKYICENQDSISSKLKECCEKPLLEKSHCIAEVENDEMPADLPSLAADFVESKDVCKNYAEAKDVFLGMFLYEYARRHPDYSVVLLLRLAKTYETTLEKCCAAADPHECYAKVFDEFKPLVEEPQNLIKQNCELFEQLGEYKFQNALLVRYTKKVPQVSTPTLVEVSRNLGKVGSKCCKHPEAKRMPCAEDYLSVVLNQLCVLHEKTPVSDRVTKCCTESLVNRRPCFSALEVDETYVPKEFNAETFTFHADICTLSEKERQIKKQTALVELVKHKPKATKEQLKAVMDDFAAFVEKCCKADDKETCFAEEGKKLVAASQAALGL

KSV (Albumin [1]): 2.74 ×10⁴ L/mol
KSV (Albumin [2]): 1.99 ×10⁴ L/mol
Time (Albumin [3]): 3.852 nanoseconds
Time (Albumin [4]): 3.699 nanoseconds
Time (Albumin [5]): 0.515 nanoseconds
Time (Albumin [6]): 0.488 nanoseconds
Time (Albumin [7]): 6.858 nanoseconds
Time (Albumin [8]): 6.84 nanoseconds
K (Albumin [9]): 2.01 ×10⁴ L/mol
K (Albumin [10]): 1.1 ×10⁴ L/mol
K (Albumin [11]): 1.97 ×10⁴ L/mol
Activity (Albumin [12]): 49.06%
Activity (Albumin [13]): 47.88%
Compound: CC(COc1ccccc1Cc1ccccc1)N1CCCCC1 (stereo not drawn) [BENPROPERINE]
